In ChEMBL document CHEMBL4396932, “Rasagiline derivatives combined with histamine H3 receptor properties” (Bioorg Med Chem Lett, 2019):

Legend:
[1] = Cytotoxicity against human SH-SY5Y cells assessed as cell viability at 1 mM and measured after 24 hrs by resazurin dye based fluorescence assay relative to control; conditions: read-out: Activity
[2] = biological target: T1, Amine oxidase [flavin-containing] B (Rattus norvegicus, UniProt P19643); assay: Inhibition of rat brain MAO-B using [14C]-phenylethylamine as substrate preincubated for 60 mins followed by substrate addition and measured after 20 mins by liquid scintillation counting method
T1 sequence (P19643 whole entry): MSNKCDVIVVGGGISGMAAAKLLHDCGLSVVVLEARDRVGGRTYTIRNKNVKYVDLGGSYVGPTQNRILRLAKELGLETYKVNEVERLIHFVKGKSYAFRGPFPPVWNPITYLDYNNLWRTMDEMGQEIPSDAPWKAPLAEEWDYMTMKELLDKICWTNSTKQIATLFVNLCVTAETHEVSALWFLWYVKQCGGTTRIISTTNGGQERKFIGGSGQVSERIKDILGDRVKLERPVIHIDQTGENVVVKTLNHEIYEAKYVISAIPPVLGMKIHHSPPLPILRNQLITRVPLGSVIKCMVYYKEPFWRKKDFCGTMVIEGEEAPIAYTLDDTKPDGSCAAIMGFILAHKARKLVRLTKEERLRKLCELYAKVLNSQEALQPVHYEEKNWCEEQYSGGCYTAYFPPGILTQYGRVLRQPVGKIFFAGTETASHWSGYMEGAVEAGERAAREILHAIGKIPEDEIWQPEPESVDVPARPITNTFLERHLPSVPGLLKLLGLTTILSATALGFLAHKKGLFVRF

[3] = biological target: Acetylcholinesterase (Electrophorus electricus) (UniProt O42275); assay: Inhibition of electric eel AChE at 10 uM using acetylthiocholine iodide as substrate preincubated for 30 mins followed by substrate addition and measured every 40 secs for 30 mins by Ellman's method relative to control
[4] = biological target: T2, Amine oxidase [flavin-containing] A (Homo sapiens, UniProt P21397); assay: Inhibition of human recombinant MAO-A using kynuramine as substrate by discontinuous fluorimetric analysis
T2 sequence (P21397 whole entry): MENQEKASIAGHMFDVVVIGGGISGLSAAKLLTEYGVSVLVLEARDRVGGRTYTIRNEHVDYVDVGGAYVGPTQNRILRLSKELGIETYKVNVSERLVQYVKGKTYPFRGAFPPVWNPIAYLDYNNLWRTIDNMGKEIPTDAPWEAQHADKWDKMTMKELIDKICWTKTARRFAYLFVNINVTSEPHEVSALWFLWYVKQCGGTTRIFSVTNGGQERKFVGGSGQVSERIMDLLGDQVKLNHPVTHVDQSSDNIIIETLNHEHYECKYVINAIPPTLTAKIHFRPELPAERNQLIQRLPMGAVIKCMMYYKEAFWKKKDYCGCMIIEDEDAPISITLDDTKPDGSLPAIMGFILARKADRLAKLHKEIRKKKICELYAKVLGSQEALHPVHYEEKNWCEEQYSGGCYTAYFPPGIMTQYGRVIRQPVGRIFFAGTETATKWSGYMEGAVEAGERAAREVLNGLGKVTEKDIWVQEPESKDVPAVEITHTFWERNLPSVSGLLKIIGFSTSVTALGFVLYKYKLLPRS

[5] = Cytotoxicity against human SH-SY5Y cells assessed as cell viability at 10 uM measured after 24 hrs by resazurin dye based fluorescence assay relative to control; conditions: read-out: Activity
[6] = biological target: T2, Amine oxidase [flavin-containing] A; assay: Inhibition of human recombinant MAO-A using kynuramine as substrate preincubated for 60 mins followed by substrate addition by discontinuous fluorimetric analysis
Homo sapiens [7] = species on record: Homo sapiens; assay: Selectivity index, ratio of IC50 for human recombinant MAO-A to IC50 for human recombinant MAO-B using kynuramine as substrate
[8] = biological target: T3, Amine oxidase [flavin-containing] B (Homo sapiens, UniProt P27338); assay: Inhibition of human recombinant MAO-B using kynuramine as substrate preincubated for 60 mins followed by substrate addition by discontinuous fluorimetric analysis
T3 sequence (P27338 whole entry): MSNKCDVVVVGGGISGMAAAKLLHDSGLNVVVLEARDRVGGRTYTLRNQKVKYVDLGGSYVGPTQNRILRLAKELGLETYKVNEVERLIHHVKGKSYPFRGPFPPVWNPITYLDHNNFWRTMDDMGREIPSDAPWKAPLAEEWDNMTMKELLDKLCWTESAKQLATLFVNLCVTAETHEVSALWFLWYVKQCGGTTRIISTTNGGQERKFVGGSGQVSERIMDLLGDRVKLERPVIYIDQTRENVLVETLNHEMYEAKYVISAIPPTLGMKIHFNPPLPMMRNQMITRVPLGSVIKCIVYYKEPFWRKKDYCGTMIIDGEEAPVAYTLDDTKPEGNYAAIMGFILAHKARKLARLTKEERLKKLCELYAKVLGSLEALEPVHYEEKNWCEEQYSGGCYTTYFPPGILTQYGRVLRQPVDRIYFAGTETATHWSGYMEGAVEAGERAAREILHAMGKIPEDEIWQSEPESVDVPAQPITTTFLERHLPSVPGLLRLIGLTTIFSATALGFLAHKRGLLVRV

[9] = Cytotoxicity against human SH-SY5Y cells assessed as cell viability at 1 uM measured after 24 hrs by resazurin dye based fluorescence assay relative to control; conditions: read-out: Activity
[10] = biological target: Cholinesterase (Equus caballus) (UniProt P81908); assay: Inhibition of equine serum BuChE at 10 uM using acetylthiocholine iodide as substrate preincubated for 30 mins followed by substrate addition and measured every 40 secs for 30 mins by Ellman's method relative to control
Histamine H3 receptor = Histamine H3 receptor (Homo sapiens, UniProt Q9Y5N1); assay: Displacement of [3H] N-alpha methylhistamine from human recombinant H3 receptor expressed in HEK293 cells incubated for 90 min; assay type: cell-based
[11] = biological target: T3, Amine oxidase [flavin-containing] B; assay: Inhibition of human recombinant MAO-B using kynuramine as substrate by discontinuous fluorimetric analysis
Homo sapiens [12] = species on record: Homo sapiens; assay: Selectivity index, ratio of IC50 for human recombinant MAO-A using kynuramine as substrate preincubated for 60 mins followed by substrate addition to IC50 for human recombinant MAO-B using kynuramine as substrate preincubated for 60 mins followed by substrate addition
D(2) dopamine receptor = D(2) dopamine receptor (Homo sapiens, UniProt P14416); assay: Displacement of [3H] spiperone from human D2 dopamine receptor
Homo sapiens [13] = species on record: Homo sapiens; assay: Selectivity index, ratio of IC50 for human recombinant MAO-A using kynuramine as substrate preincubated for 30 mins followed by substrate addition to IC50 for human recombinant MAO-B using kynuramine as substrate preincubated for 30 mins followed by substrate addition
D(3) dopamine receptor = D(3) dopamine receptor (Homo sapiens, UniProt P35462); assay: Displacement of [3H] spiperone from human D3 dopamine receptor
[14] = biological target: T2, Amine oxidase [flavin-containing] A; assay: Inhibition of human recombinant MAO-A using kynuramine as substrate preincubated for 30 mins followed by substrate addition by discontinuous fluorimetric analysis
[15] = biological target: T3, Amine oxidase [flavin-containing] B; assay: Inhibition of human recombinant MAO-B using kynuramine as substrate preincubated for 30 mins followed by substrate addition by discontinuous fluorimetric analysis
Histamine H1 receptor = Histamine H1 receptor (Homo sapiens, UniProt P35367); assay: Displacement of [3H] pyrilamine from human H1 histamine receptor
Histamine H4 receptor = Histamine H4 receptor (Homo sapiens, UniProt Q9H3N8); assay: Displacement of [3H] histamine from human H4 histamine receptor
[16] = biological target: T3, Amine oxidase [flavin-containing] B; assay: Irreversible inhibition of human recombinant MAO-B assessed as reduction in enzyme activity at 10 times IC50 using kynuramine as substrate preincubated with compound followed by substrate addition by discontinuous fluorimetric analysis; conditions: TDE = time-dependent effect

Chain of Histamine H3 receptor (Q9Y5N1 whole entry): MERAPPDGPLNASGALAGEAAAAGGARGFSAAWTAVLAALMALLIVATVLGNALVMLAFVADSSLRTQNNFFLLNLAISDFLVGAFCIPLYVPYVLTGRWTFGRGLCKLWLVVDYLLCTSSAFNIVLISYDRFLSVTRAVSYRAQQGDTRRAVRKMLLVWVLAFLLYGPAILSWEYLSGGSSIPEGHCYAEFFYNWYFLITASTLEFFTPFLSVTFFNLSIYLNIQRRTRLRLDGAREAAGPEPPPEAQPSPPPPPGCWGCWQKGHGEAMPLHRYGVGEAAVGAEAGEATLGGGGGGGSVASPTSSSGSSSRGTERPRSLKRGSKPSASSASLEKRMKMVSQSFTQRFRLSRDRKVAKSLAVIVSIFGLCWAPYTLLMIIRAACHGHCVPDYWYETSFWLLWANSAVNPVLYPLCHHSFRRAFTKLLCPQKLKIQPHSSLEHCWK
Chain of Cholinesterase (Equus caballus) (P81908 whole entry): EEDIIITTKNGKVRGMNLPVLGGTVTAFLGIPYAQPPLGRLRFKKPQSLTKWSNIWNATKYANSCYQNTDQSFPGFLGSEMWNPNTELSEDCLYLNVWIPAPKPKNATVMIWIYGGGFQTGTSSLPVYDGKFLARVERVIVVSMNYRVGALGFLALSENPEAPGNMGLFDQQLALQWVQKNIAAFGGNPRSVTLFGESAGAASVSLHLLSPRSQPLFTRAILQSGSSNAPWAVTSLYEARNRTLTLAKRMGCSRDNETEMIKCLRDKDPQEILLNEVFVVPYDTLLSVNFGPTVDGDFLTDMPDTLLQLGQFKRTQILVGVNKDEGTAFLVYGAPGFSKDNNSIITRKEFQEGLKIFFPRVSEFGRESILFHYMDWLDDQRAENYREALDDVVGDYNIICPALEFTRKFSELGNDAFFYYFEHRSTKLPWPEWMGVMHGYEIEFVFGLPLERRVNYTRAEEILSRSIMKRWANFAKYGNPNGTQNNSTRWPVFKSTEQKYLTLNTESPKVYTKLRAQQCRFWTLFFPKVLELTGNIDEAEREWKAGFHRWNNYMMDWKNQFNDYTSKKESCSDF
Chain of Acetylcholinesterase (Electrophorus electricus) (O42275 24-633 limits assumed): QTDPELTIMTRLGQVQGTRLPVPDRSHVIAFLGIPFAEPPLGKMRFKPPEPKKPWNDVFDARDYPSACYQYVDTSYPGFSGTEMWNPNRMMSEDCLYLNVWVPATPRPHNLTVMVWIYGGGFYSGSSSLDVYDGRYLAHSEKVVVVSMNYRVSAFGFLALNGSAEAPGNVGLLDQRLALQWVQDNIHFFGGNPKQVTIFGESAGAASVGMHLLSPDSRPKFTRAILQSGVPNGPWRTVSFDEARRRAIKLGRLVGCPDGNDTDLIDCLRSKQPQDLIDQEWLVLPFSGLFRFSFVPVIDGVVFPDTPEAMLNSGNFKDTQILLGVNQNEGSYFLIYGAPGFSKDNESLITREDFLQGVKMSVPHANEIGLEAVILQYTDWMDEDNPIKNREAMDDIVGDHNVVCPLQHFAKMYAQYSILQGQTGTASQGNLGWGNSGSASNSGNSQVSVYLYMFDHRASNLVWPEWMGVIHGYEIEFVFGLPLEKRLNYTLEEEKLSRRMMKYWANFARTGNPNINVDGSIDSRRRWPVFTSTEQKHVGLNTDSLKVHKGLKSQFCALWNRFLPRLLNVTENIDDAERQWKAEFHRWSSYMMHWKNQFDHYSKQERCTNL
Chain of Histamine H1 receptor (P35367 whole entry): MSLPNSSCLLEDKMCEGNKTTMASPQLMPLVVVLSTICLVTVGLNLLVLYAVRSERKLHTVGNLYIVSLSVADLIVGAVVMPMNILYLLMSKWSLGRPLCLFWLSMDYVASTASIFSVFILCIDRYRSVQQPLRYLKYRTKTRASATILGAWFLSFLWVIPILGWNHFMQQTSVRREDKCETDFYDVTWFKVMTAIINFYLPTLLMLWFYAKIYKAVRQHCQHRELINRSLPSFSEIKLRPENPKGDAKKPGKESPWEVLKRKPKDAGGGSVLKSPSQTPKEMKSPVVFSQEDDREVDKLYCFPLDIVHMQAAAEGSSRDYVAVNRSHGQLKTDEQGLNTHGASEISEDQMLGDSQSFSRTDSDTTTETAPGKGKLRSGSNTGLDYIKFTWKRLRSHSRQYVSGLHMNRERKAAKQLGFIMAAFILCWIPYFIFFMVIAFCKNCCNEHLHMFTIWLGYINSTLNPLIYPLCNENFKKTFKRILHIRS
Chain of D(3) dopamine receptor (P35462 whole entry): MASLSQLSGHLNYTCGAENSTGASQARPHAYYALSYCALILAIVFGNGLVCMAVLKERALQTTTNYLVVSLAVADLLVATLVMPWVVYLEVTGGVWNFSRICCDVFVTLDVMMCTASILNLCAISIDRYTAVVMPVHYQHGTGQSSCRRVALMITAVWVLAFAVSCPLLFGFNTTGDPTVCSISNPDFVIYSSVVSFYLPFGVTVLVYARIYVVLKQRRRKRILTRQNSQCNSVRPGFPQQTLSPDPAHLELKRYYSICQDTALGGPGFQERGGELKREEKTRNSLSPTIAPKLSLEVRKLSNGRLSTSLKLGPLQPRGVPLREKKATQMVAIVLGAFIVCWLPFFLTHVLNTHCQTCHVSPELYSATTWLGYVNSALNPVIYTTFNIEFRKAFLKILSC
Chain of D(2) dopamine receptor (P14416 whole entry): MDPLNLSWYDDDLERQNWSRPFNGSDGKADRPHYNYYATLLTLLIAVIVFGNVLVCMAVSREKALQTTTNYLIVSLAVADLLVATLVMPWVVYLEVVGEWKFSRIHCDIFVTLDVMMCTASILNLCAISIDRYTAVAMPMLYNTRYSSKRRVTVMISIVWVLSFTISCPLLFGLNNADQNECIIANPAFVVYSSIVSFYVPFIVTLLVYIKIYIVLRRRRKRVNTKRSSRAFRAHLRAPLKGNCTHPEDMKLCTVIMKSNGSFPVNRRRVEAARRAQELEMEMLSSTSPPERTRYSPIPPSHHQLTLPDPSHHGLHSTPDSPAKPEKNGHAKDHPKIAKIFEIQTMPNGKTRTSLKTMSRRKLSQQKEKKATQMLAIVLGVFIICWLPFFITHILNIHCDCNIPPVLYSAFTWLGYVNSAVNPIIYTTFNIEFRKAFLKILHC
Chain of Histamine H4 receptor (Q9H3N8 whole entry): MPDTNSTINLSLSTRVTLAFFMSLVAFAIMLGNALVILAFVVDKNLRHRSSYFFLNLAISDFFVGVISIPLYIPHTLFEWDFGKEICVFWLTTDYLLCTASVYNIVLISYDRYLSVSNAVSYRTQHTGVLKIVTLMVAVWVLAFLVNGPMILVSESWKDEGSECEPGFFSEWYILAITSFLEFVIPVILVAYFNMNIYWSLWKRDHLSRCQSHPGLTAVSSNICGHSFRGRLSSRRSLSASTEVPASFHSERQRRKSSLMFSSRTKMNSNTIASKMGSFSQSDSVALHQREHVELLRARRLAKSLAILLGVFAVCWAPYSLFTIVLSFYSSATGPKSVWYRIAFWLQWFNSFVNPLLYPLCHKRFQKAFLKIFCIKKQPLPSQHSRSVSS

Row | Structure (SMILES) | inhibition [3] [%] | IC50 [4] [µM] | viability at 24 h, 10 µM [5] [%] | IC50 [6] [µM] | Ratio IC50 (Homo sapiens [7]) | IC50 [8] [µM] | viability at 24 h, 1 µM [9] [%] | inhibition [10] [%] | Ki (Histamine H3 receptor; read-out: Ki) [µM] | Ki (Histamine H3 receptor; read-out: pKi (converted)) [µM] | IC50 [11] [µM] | Ratio IC50 (Homo sapiens [12]) | also measured
1 | C[n+]1ccc(-c2ccccc2)cc1 | – | – | – | – | – | – | – | – | – | – | – | – | viability at 24 h, 1000 µM [1]: 1.8%
2 | C#CCN[C@@H]1CCc2ccc(OC(=O)N(C)CC)cc21 [LADOSTIGIL] | – | – | – | – | – | – | – | – | – | – | – | – | IC50 [2]: > 1000 µM
3 | C#CCNC1CCc2ccc(OCCCN3CCCCC3)cc21 (centres undefined) | 47 | > 100 | 100 | > 50 | > 13 | 10.5 | 84 | 47 | 0.0067 | < 0.01 | 7.92 | > 4.8 | –
4 | C#CCNC1CCc2cc(OCCCN3CCCCC3)ccc21 (centres undefined) | 57 | > 100 | 95.6 | > 10 | > 100 | 0.256 | 89.7 | 32 | 0.0026 | < 0.01 | 0.991 | > 39 | Ki (D(2) dopamine receptor): > 10 µM; Ratio IC50 (Homo sapiens [13]): > 95; Ki (D(3) dopamine receptor): > 10 µM; IC50 [14]: > 100 µM; IC50 [15]: 1.05 µM; Ki (Histamine H1 receptor): > 10 µM; Ki (Histamine H4 receptor): > 100 µM; inhibition (INH) [16]: Tde
